# Target: T1, RIP1 (Homo sapiens, UniProt Q13546)
# T1 sequence (Q13546 1-671): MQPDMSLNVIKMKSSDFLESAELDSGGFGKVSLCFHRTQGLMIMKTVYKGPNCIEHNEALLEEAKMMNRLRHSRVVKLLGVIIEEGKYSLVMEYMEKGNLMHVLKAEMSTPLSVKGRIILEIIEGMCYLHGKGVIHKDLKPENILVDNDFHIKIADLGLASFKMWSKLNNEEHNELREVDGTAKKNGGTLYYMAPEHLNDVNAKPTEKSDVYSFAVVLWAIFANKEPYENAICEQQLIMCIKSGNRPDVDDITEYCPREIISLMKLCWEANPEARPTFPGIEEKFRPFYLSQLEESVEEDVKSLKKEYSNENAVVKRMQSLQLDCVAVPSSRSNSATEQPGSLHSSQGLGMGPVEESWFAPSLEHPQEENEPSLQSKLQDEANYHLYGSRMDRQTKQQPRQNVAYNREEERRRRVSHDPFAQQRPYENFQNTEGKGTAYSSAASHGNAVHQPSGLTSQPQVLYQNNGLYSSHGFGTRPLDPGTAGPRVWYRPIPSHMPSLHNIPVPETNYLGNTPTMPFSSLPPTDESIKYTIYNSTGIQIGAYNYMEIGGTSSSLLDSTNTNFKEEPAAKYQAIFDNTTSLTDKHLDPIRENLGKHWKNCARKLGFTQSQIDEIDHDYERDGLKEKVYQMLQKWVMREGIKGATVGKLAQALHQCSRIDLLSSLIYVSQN
# Experiment: Cellular RIP1 inhibitory activity: HT-29 necroptosis (TNFα/SMAC mimetic/zVAD-FMK) CellTiter-Glo viability assay
# Type: cell-based
# Conditions: HT-29 cells, TNF-α 10 ng/ml + SMAC mimetic 6 μM + zVAD-FMK 10 μM, 20 hours, geometric mean, read-out: EC50 Values of in vitro Cellular RIP1 Inhibitory Activity
row,Compound,EC50 [nM]
1,"Cc1cnn(C)c1-c1nc(N2CCC(C(=O)N(C)Cc3cncs3)CC2)ncc1F [Compound 98, 1-(4-(1,4-dimethyl-1H-pyrazol-5-yl)-5-fluoropyrimidin-2-yl)-N-methyl-N-(thiazol-5-ylmethyl)piperidine-4-carboxamide]",0.1 to 100
2,"CCN(Cc1cncs1)C(=O)C1CCN(c2ncc(F)c(-c3c(C)cnn3C)n2)CC1 [Compound 99, 1-(4-(1,4-dimethyl-1H-pyrazol-5-yl)-5-fluoropyrimidin-2-yl)-N-ethyl-N-(thiazol-5-ylmethyl)piperidine-4-carboxamide]",0.1 to 100
